The results in this text go back to PMC3076504 (2011).

pIC50: −log10 of the molar value.

This assay deals with Isocitrate lyase (ICL) (Mycobacterium tuberculosis, UniProt P9WKK7). The assay is described as follows: colorimetric glyoxylate-phenylhydrazone assay at […] nm, dose response. Format: biochemical.
Sequence of Isocitrate lyase (ICL) (P9WKK7 whole entry): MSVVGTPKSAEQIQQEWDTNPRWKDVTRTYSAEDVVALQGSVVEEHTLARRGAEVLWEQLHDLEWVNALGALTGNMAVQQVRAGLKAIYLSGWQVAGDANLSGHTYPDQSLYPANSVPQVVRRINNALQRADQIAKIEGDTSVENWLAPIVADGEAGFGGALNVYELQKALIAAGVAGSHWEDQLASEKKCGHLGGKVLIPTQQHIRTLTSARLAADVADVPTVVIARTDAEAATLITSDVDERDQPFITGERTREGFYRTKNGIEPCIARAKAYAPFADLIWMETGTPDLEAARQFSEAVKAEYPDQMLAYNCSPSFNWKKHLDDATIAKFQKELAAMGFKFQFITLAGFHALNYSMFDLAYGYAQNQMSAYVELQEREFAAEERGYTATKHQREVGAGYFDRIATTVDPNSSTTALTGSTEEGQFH

The pIC50 is the IC50 on a negative log10 scale, so that one unit is a factor of ten. In the case of `O=C(O)C(=O)O` [oxalic acid], the negative logarithm of the IC50 (pIC50) is 1.89.
